For one series, the system named is JIMT-1 cell line. Put plainly: MTS cell viability assay in JIMT-1 cell line. The class given is cell-based. The note with it: Homo sapiens, JIMT-1, 72 hours. On the procedure: The control group was treated with DMSO as an untreated group (0 μM) of the indazole derivative of the present disclosure.
Specifically, cells were attached to 96 well plates for 24 hours, and then treated with the indazole derivatives for 72 hours. Thereafter, the cells were chromogenized with MTS for 4 hours, and the absorbance was measured at 490 nm using a Spectramax Plus384 microplate analyzer.
HER2 positive breast cancer (HER2+BC) cell lines, BT474 (cell seeding numbers: 2.4 (BT474)×10^4 cells/wells (confluency≥50%)) sensitive to trastuzumab and JIMT-1 (cell seeding numbers: 1.0 (JIMT-1)×10^4 cells/wells (confluency>30%)) resistant to trastuzumab were used in the experiment.
In this case, the cell lines were treated with the benzopyran derivative at a concentration of 10 μM for 72 hours and the cell lines were treated with the indazole derivative at a concentration of 10 μM for 72 hours, and then the cell viability was measured.

Series [1] has as its system MDA-MB-231 cell line. Put plainly: MTS cell viability assay in MDA-MB-231 cell line. Format: cell-based. The note with it: Homo sapiens, MDA-MB-231, 72 hours. On the procedure: A HER2 positive breast cancer (HER2+BC) cell line, JIMT-1 (cell seeding numbers: 1.0 (JIMT)×10^4 cells/wells (confluency≤30%)) and a triple-negative breast cancer (TNBC) cell line, MDA-MB-231 (cell seeding numbers: 1.0 (M231)×10^4 cells/wells (confluency≤30%) were used in the experiment.
The above cell lines were cultured in Dulbecco's Modified Eagle's Medium (DMEM) or Eagle's minimum Essential Medium (MEM) each containing 10% fetal bovine serum (FBS), streptomycin-penicillin (100 U/ml), and Fungizone (0.625 μg/ml), respectively under 5% CO2, 37° C. environment.
The JIMT-1 cell line and MDA-MB-231 cell line were treated with the indazole derivatives (formulas 1-1 to 1-53) of the present disclosure at a concentration of 10 μM each for 72 hours, and then cell viability was measured using the MTS assay technique. The control group was treated with DMSO as an untreated group (0 μM) of the indazole derivative of the present disclosure.
(§1) Specifically, cells were attached to 96 well plates for 24 hours, and then treated with the indazole derivatives for 72 hours. Thereafter, the cells were chromogenized with MTS for 4 hours, and the absorbance was measured at 490 nm using a Spectramax Plus384 microplate analyzer. The significance between the control group and the experimental group was verified using an unpaired Students t-test (*p<0.01; DMSO control vs indazole series).
HER2-positive breast cancer cell lines, BT474 (cell seeding numbers: 2.0 (JIMT)×10^4 cells/wells (confluency≤30%)) sensitive to trastuzumab, and JIMT-1 (cell seeding numbers: 1.0 (JIMT)×10^4 cells/wells (confluency≤30%)) resistant to trastuzumab, and a triple-negative breast cancer cell line, MDA-MB-231 (cell seeding numbers: 1.0 (M231)×10^4 cells/wells (confluency≤30%)) were used.
The BT474, JIMT-1, and MDA-MB-231 cell lines were treated with compound 18c (formula 1-16) and compound 11k (formula 1-7) at concentrations of 0 (DMSO), 0.1, 0.5, 1, 5, 10, and 20 μM, respectively, for 72 hours, and then cell viability was measured using the MTS assay technique as explained by the description of Experimental Example 1. The cell viability experiment was performed independently three times, and the significance was verified by a One-Way Anova, Bonferroni post-hoc test (*p<0.01; DMSO control vs. compound 18c or compound 11k).
In addition, the JIMT-1 and MDA-MB-231 cell lines were treated with compound 11m (formula 1-9), 11n (formula 1-10) and compound 12k (formula 1-13) at concentrations of 0 (DMSO), 0.1, 1, 5, 10, and 20 μM, respectively, for 72 hours, and then cell viability was measured.
(§2) Meanwhile, triple-negative breast cancer cell lines MDA-MB-231 and BT549, and a mouse breast cancer cell line 4T1 were treated with compound 38 (formula 1-30) at concentrations of 0 (DMSO), 0.1, 0.5, 1, 2, 5, 10, and 20 μM for 72 hours, and then cell viability was measured.
The indazole derivative of the present disclosure was compared with the benzopyran derivative of the related art (KR 10-2304532) in terms of cell viability of the BT474, JIMT-1, and MDA-MB-231 cell lines (Table 1). In this case, the cell lines were treated with the benzopyran derivative at a concentration of 10 μM for 72 hours and the cell lines were treated with the indazole derivative at a concentration of 10 μM for 72 hours, and then the cell viability was measured.
(In general: Tetrazolium assays rely on reduction of a dye to a coloured formazan, in cell work by metabolically active cells.)

The test system of series [2] is JIMT-1 breast cancer cell line xenograft. Put plainly: Tumor growth in JIMT-1 xenograft mouse model, combination with paclitaxel. Format: in vivo, Balb/c nude mice. On the procedure:
This experiment was performed in an in vivo environment using a xenograft mouse model transplanted with the JIMT-1 breast cancer cell line.
6-week-old mice (Balb/c nude mice) were purchased and raised in an environment where they could freely access food and water. The mice were acclimated for more than 7 days, and then were transplanted with tumor cells. Tumor cells were injected subcutaneously into the mammary gland tissue of JIMT-1 breast cancer cells at a density of 3×10^6 cells/mL per individual, and when the tumor reached a size of 50 to 100 mm^3, the indazole derivative of the present disclosure was administered intraperitoneally, and the tumor growth was measured.

Series [3] is described as follows: Toxicity in JIMT-1 xenograft mice, combination with paclitaxel (body weight, AST, ALT, BUN). The class given is in vivo, Balb/c nude mice. Conditions: combination study.
In series [4] the test system is BT549 cell line. Put plainly: Annexin V/PI staining, type of cell death, BT549. The class given is cell-based. On the procedure: (§3) Meanwhile, triple-negative breast cancer cell lines, MDA-MB-231 and BT549 were treated with compound 38 (formula 1-30), and then the type of cell death was determined by Annexin V/PI staining.
Series [5] relates to MDA-MB-231 cell line. Put plainly: Annexin V/PI staining, type of cell death, MDA-MB-231. The class given is cell-based. Conditions: MDA-MB-231, Annexin V/PI staining. On the procedure: as §3
The subject of series [6] is MDA-MB-231 cell line. Description: Cell morphology by phase contrast microscopy, MDA-MB-231. Format: cell-based. The note with it: MDA-MB-231, 5 and 10 μM, 72 hours. On the procedure:
(§4) MDA-MB-231 and BT549 cell lines were treated with compound 38 (formula 1-30) at concentrations of 0 (DMSO), 5, and 10 μM for 72 hours. Then, the drug-induced cytotoxicity was assessed by observing changes in cell morphology using phase contrast microscopy. The photographs were taken at a magnification of ×200 using phase contrast microscopy.

The subject of series [7] is mouse breast cancer cell line 4T1. Description: MTS cell viability assay in 4T1 cell line. Conditions: 4T1, 72 hours. The class given is cell-based. On the procedure:
as §1, §2

Series [8] has as its system BT549 cell line. Put plainly: Cell morphology by phase contrast microscopy, BT549. Format: cell-based. The note with it: BT549, 5 and 10 μM, 72 hours. On the procedure:
as §4

In series [9] the test system is BT549 cell line. Description: MTS cell viability assay in BT549 cell line. The class given is cell-based. The note with it: Homo sapiens, BT-549; BT549, 72 hours. On the procedure: as §1, §2

4 molecules from patent publication US20260167629A1, “NOVEL INDAZOLE DERIVATIVE OR PHARMACEUTICALLY ACCEPTABLE SALT THEREOF, AND USE THEREOF” (KOREA UNIVERSITY RESEARCH AND BUSINESS FOUNDATION, priority 2022, published 2026) can be followed below.

One may read the IC50 as the point on the concentration scale where inhibition reaches its midpoint. Read a high IC50 as a need for much substance.

As for `COc1c(C(=O)Nc2ccc3c(C)nn(CCCN4CCN(C)CC4)c3c2)ccc2c1C=CC(C)(C)O2` [compound 11n, 5-methoxy-2,2-dimethyl-N-(3-methyl-1-(3-(4-methylpiperazin-1-yl)propyl)-1H-indazol-6-yl)-2H-chromene-6-carboxamide], the results for the IC50 in the series with JIMT-1 cell line and with MDA-MB-231 cell line [1] were 3.28 µM and 3.65 µM, respectively.
For `CC(=O)O[C@H]1C(=O)[C@@]2(C)[C@H]([C@H](OC(=O)c3ccccc3)[C@]3(O)C[C@H](OC(=O)[C@H](O)[C@@H](NC(=O)c4ccccc4)c4ccccc4)C(C)=C1C3(C)C)[C@]1(OC(C)=O)CO[C@@H]1C[C@@H]2O` [paclitaxel, reference compound], the tumor weight in series [2] (measured after tumor resection) came to 488.333 mg. In [2] (measured at 40 days after drug administration), the tumor volume is 813.356 mm^3. For the same molecule, in series [3] (blood of the mouse model), the “AST and ALT levels, BUN assay” value is reported as “levels similar to those of the control group”. Moreover, the body weight result in series [3] was “remained unchanged”.
On to `COc1c(C(=O)Nc2ccc3cnn(CCC4CCN(C)CC4)c3c2)ccc2c1C=CC(C)(C)O2` [compound 12k, 5-methoxy-2,2-dimethyl-N-(1-(2-(1-methylpiperidin-4-yl)ethyl)-1H-indazol-6-yl)-2H-chromene-6-carboxamide], for which the IC50 was 5.56 µM in the series on JIMT-1 cell line and 2.05 µM in the series with MDA-MB-231 cell line [1].
As to `Cc1nn(CCC2CCN(C)CC2)c2cc(NC(=O)c3ccc4c(c3Cl)C=CC(C)(C)O4)ccc12` [compound 38, 5-chloro-2,2-dimethyl-N-(3-methyl-1-(2-(1-methylpiperidin-4-yl)ethyl)-1H-indazol-6-yl)-2H-chromene-6-carboxamide], the “type of cell death (apoptosis)” value in the series with BT549 cell line [4] is “early and late apoptosis of cancer cells was induced”; with MDA-MB-231 cell line [5], “early and late apoptosis of cancer cells was induced”. The “changes in cell morphology (cytotoxicity)” value in the series on MDA-MB-231 cell line [6] and with BT549 cell line [8] was “morphological changes in which the cytoplasm shrank” each time. The IC50 in the series on MDA-MB-231 cell line [1] came to 3.67 µM; in series [7] it was 1.21 µM; with BT549 cell line [9], 4.84 µM.
